In patent publication US8268827B2, “Pyridazinone derivatives as PARP inhibitors” (Istituto di Ricerche di Biologia Molecolare P. Angeletti …, priority 2007, dated 2012):
Structures can show the parent of a compound that is named as a salt.

Test system: BRCA-1 silenced HeLa cells (HeLa shBRCA1-GFP)
Assay: Proliferation assay in BRCA-1 silenced HeLa cells
Format: cell-based
Conditions: Homo sapiens; BRCA1 silenced HeLa cells, 168 hours; read-out: CC50 in the BRCA1 silenced HeLa cells
Protocol: Proliferation Assay in BRCA-1 Silenced HeLa Cells
Compounds of the present invention were also tested in an anti-proliferative assay in matched pair BRCA1 wt and BRCA1-(shRNA) HeLa cells.
The assay is based on the ability of living cells to convert a redox dye (resazurin) into a fluorescent end product (resofurin). The amount of resofurin produced is directly proportional to the cell number.
HeLa shBRCA1-GFP—These are HeLa cells transduced at an MOI of 100 with a Lentivirus containing a shRNA against BRCA-1 and an expression cassette for GFP. BRCA-1 silencing is more than 80% as assessed by Taqman analysis and the cells stably express GFP.
HeLa THM-GFP—These are HeLa cells transduced at an MOI of 100 with a control vector not expressing any shRNA.
• Seed 300 cell/well in 96 wells viewplate black in 90 ul culture Medium*: • Incubate 4 hours at 37° C., 5% CO2 • Add 10 ul/well of 10× compound (5% DMSO in H2O) • Incubate for 168 hours at 37° C., 5% CO2 • Add 10 ul of Celltiter Blue solution (Promega, G8081) pre-diluted 1:1 in PBS1× • Incubate the mixture for 45′ at 37° C., 5% CO2 • Incubate 15′ at RT in the dark • Read plate at fluorimeter ex: 550 nm; em: 590 nm *Culture Medium: DMEM (GIBCO, 41966-029), 10% FCS (GIBCO, 10106-169), 0.1 mg/ml Penicillin-Streptomycin (GIBCO, 15140-114), 2 mM L-Glutamine (GIBCO, 3042190)

Cc1c(Cc2ccc(F)c(C(=O)N3CC(=O)N4[C@@H](CCC[C@H]4C)C3)c2)n[nH]c(=O)c1C (racemic) [Example 85, 6-{4-Fluoro-3-[(cis-6-methyl-4-oxooctahydro-2H-pyrido[1,2-a]pyrazin-2-yl)carbonyl]benzyl}-4,5-dimethyl-3-oxo-2,3-dihydropyridazin-1-ium trifluoroacetate] gave a CC50 of less than 50 nM.
In the case of Cc1c(Cc2ccc(F)c(C(=O)N3CC(=O)N([C@H]4CCOC4)[C@H](C)C3)c2)n[nH]c(=O)c1C (single isomer, unassigned) [75 (II4A)], the CC50 is reported as 50 to 500 nM.
Molecule Cc1c(Cc2ccc(F)c(C(=O)N3CC(=O)N([C@H]4CCOC4)[C@@H](C)C3)c2)n[nH]c(=O)c1C (single isomer, unassigned) [75 (II4B)] has a CC50 of less than 50 nM.
Molecule Cc1c(Cc2ccc(F)c(C(=O)N3CC(=O)N4[C@@H](CCC[C@@H]4C)C3)c2)n[nH]c(=O)c1C (single isomer, unassigned) [86 (TT1)] has a CC50 of less than 50 nM.
In the case of Cc1c(Cc2ccc(F)c(C(=O)N3CC(=O)N4[C@H](CCC[C@H]4C)C3)c2)n[nH]c(=O)c1C (single isomer, unassigned) [86 (TT2)], the CC50 is reported as 50 to 500 nM.
For C[C@H]1CCC[C@H]2CN(C(=O)c3cc(Cc4cc(C(F)(F)F)c(=O)[nH]n4)ccc3F)CC(=O)N21 (single isomer, unassigned) [88 (VV1)], the CC50 was less than 50 nM.
For C[C@@H]1CCC[C@@H]2CN(C(=O)c3cc(Cc4cc(C(F)(F)F)c(=O)[nH]n4)ccc3F)CC(=O)N21 (single isomer, unassigned) [88 (VV2)], the CC50 was 50 to 500 nM.
Cc1c(Cc2ccc(F)c(C(=O)N3CCN(c4ccccc4)C(=O)C3)c2)n[nH]c(=O)c1C [Example 1, 6-{4-Fluoro-3-[(3-oxo-4-phenylpiperazin-1-yl)carbonyl]benzyl}-4,5-dimethyl-3-oxo-2,3-dihydropyridazin-1-ium trifluoroacetate] was tested, and the CC50 was less than 50 nM.
Cc1c(Cc2ccc(F)c(C(=O)N3CCN(C4CCCCC4)C(=O)C3)c2)n[nH]c(=O)c1C [Example 2, 6-{3-[(4-Cyclohexyl-3-oxopiperazin-1-yl)carbonyl]-4-fluorobenzyl}-4,5-dimethyl-3-oxo-2,3-dihydropyridazin-1-ium trifluoroacetate] gave a CC50 of less than 50 nM.
Cc1c(Cc2ccc(F)c(C(=O)N3CCN(C4CCCC4)C(=O)C3)c2)n[nH]c(=O)c1C [Example 3, 6-{3-[(4-Cyclopentyl-3-oxopiperazin-1-yl)carbonyl]-4-fluorobenzyl}-4,5-dimethylpyridazin-3(2H)-one] gave a CC50 of less than 50 nM.
Molecule CCc1cc(Cc2ccc(F)c(C(=O)N3CCN(c4ccccc4)C(=O)C3)c2)n[nH]c1=O [Example 5, 4-Ethyl-6-{4-fluoro-3-[(3-oxo-4-phenylpiperazin-1-yl)carbonyl]benzyl}pyridazin-3(2H)-one trifluoroacetate] has a CC50 of 50 to 500 nM.
CCc1cc(Cc2ccc(F)c(C(=O)N3CCN(C4CCCCC4)C(=O)C3)c2)n[nH]c1=O [Example 6, 6-{3-[(4-Cyclohexyl-3-oxopiperazin-1-yl)carbonyl]-4-fluorobenzyl}-4-ethylpyridazin-3(2H)-one trifluoroacetate] gave a CC50 of 50 to 500 nM.
Cc1c(Cc2ccc(F)c(C(=O)N3CCN(Cc4ccc(F)cc4)C(=O)C3)c2)n[nH]c(=O)c1C [Example 8, 3-(4-Fluoro-3-{[4-(4-fluorobenzyl)-3-oxopiperazin-1-yl]carbonyl}benzyl)-4,5-dimethyl-6-oxo-1,6-dihydropyridazin-1-ium trifluoroacetate] gave a CC50 of less than 5000 nM.
In the case of Cc1c(Cc2ccc(F)c(C(=O)N3CCN(c4cccc(Cl)c4)C(=O)C3)c2)n[nH]c(=O)c1C [Example 9, 6-(3-{[4-(3-Chlorophenyl)-3-oxopiperazin-1-yl]carbonyl}-4-fluorobenzyl)-4,5-dimethyl-3-oxo-2,3-dihydropyridazin-1-ium trifluoroacetate], the CC50 is reported as less than 50 nM.
Cc1c(Cc2ccc(F)c(C(=O)N3CCN(c4ccc(F)c(Cl)c4)C(=O)C3)c2)n[nH]c(=O)c1C [Example 10, 6-(3-{[4-(3-Chloro-4-fluorophenyl)-3-oxopiperazin-1-yl]carbonyl}-4-fluorobenzyl)-4,5-dimethyl-3-oxo-2,3-dihydropyridazin-1-ium trifluoroacetate] gave a CC50 of less than 50 nM.
Work on Cc1c(Cc2ccc(F)c(C(=O)N3CCN(c4ccc(F)c(F)c4)C(=O)C3)c2)n[nH]c(=O)c1C [Example 11, 6-(3-{[4-(3,4-Difluorophenyl)-3-oxopiperazin-1-yl]carbonyl}-4-fluorobenzyl)-4,5-dimethyl-3-oxo-2,3-dihydropyridazin-1-ium trifluoroacetate] yielded a CC50 of less than 50 nM.
Cc1c(Cc2ccc(F)c(C(=O)N3CCN(c4cc(F)cc(F)c4)C(=O)C3)c2)n[nH]c(=O)c1C [Example 12, 6-(3-{[4-(3,5-Difluorophenyl)-3-oxopiperazin-1-yl]carbonyl}-4-fluorobenzyl)-4,5-dimethyl-3-oxo-2,3-dihydropyridazin-1-ium trifluoroacetate] showed a CC50 of less than 50 nM.
Molecule Cc1c(Cc2ccc(F)c(C(=O)N3CCN(c4ccc(Cl)cc4)C(=O)C3)c2)n[nH]c(=O)c1C [Example 13, 6-(3-{[4-(4-Chlorophenyl)-3-oxopiperazin-1-yl]carbonyl}-4-fluorobenzyl)-4,5-dimethyl-3-oxo-2,3-dihydropyridazin-1-ium trifluoroacetate] has a CC50 of less than 50 nM.
Molecule Cc1c(Cc2ccc(F)c(C(=O)N3CCN(c4ccccc4Cl)C(=O)C3)c2)n[nH]c(=O)c1C [Example 14, 6-(3-{[4-(2-Chlorophenyl)-3-oxopiperazin-1-yl]carbonyl}-4-fluorobenzyl)-4,5-dimethyl-3-oxo-2,3-dihydropyridazin-1-ium trifluoroacetate] has a CC50 of 50 to 500 nM.
Work on Cc1c(Cc2ccc(F)c(C(=O)N3CCN(c4ccccc4C(F)(F)F)C(=O)C3)c2)n[nH]c(=O)c1C [Example 15, 6-[4-Fluoro-3-({3-oxo-4-[2-(trifluoromethyl)phenyl]piperazin-1-yl}carbonyl)benzyl]-4,5-dimethyl-3-oxo-2,3-dihydropyridazin-1-ium trifluoroacetate] yielded a CC50 of less than 50 nM.
Cc1c(Cc2ccc(F)c(C(=O)N3CCN(c4ccc(F)cc4Cl)C(=O)C3)c2)n[nH]c(=O)c1C [Example 16, 6-(3-{[4-(2-Chloro-4-fluorophenyl)-3-oxopiperazin-1-yl]carbonyl}-4-fluorobenzyl)-4,5-dimethyl-3-oxo-2,3-dihydropyridazin-1-ium trifluoroacetate] was tested, and the CC50 was 50 to 500 nM.
CCN1CCN(C(=O)c2cc(Cc3n[nH]c(=O)c(C)c3C)ccc2F)CC1=O [Example 17, 6-{3-[(4-Ethyl-3-oxopiperazin-1-yl)carbonyl]-4-fluorobenzyl}-4,5-dimethylpyridazin-3(2H)-one trifluoroacetate] gave a CC50 of 50 to 500 nM.
With CCCCN1CCN(C(=O)c2cc(Cc3n[nH]c(=O)c(C)c3C)ccc2F)CC1=O [Example 18, 6-{3-[(4-Butyl-3-oxopiperazin-1-yl)carbonyl]-4-fluorobenzyl}-4,5-dimethylpyridazin-3(2H)-one trifluoroacetate] the CC50 was 50 to 500 nM.
Cc1cc(C)cc(CN2CCN(C(=O)c3cc(Cc4n[nH]c(=O)c(C)c4C)ccc3F)CC2=O)c1 [Example 19, 6-(3-{[4-(3,5-Dimethylbenzyl)-3-oxopiperazin-1-yl]carbonyl}-4-fluorobenzyl)-4,5-dimethylpyridazin-3(2H)-one trifluoroacetate] showed a CC50 of 50 to 500 nM.
